# Legend:
# [1] = tested on: APN; test: APN expression in ST cells and porcine intestinal organoids (western blot, IFA); format: cell-based; settings: PM 10 mM; for APN level, western blot, relative to WT without PM (=1) / APN level, western blot quantified by Image J, relative to no PM (=1): PRCV 0.1 MOI; for APN level, western blot quantified by Image J, relative to no PM (=1): ST cells
# Procedure: Fig 5 PM blocks TGEV infection by degrading APN expression. (A, D, and G) ST cells (A) or intestinal organoids monolayer (D) or apical-out intestinal organoids (G) were treated with PM (10 mM) at 2, 4, 8, and 16 h, which was collected and determined by western blot. (B, E, and H) ST cells (B) or intestinal organoids monolayer (E) or apical-out intestinal organoids (H) were treated with PM (10 mM) at 16 h, which was measured by IFA, scale bar: 20 µm. (C, F, and I) ST cells (C) or intestinal organoids monolayer (F) or apical-out intestinal organoids (I) were treated with PM (10 mM) and infected with 0.1 MOI TGEV at 2, 4, 8, and 16 h. The cell samples were harvested and detected by western blot. (J) ST cells were transfected with empty vector or pCMV-HA-APN (pig) plasmids for 24 h, which was treated with H2O or PM and then infected with 0.1 MOI TGEV for 16 h. The cell samples were detected by western blot. All western blot results were calculated by Image J. All experiments were performed in triplicate.
# Cotransfected cells were washed with cold PBS twice and lysed with NP40 lysis buffer (Beyotime, China, P0013F) supplemented with 1 mM PMSF (Beyotime, China, ST506) and phosphatase inhibitors (Beyotime, China, P1096). Lysis buffer containing cells was added to 20 µL of protein A+G agarose beads (Beyotime, China, P2055) and IgG (Santa Cruz, USA, 2025) on a rotating device for 4 h at 4°C to remove nonspecific proteins, after which the mixture was centrifuged at 2,500 rpm for 5 min. The supernatant was harvested, and anti-Flag/Myc/His/IgG antibodies were added to the samples on a rocking platform overnight at 4°C. Subsequently, 40 µL of protein A+G agarose beads were added to the supernatant containing the antibody, which was incubated for 4 h at 4°C on a rotating device. After washing with lysis buffer three times, the immunoprecipitates were collected by centrifugation, and the supernatant was discarded. Immunoprecipitated proteins were detected by western blotting. For the western blot, the proteins were separated by SDS‒PAGE and transferred onto a PVDF membrane (GE, USA, 10600023). The membranes were blocked in 5% nonfat milk at room temperature for 2 h and then incubated with specific primary antibodies overnight. Subsequently, the membrane was incubated with the secondary antibody for 1 h at room temperature. Finally, the proteins on the membranes were visualized with WesternBright ECL (Advansta, USA, K-12045-D50).
# Fig. S5. PM blocks PRCV infection by degrading APN expression. (A) ST cells were treated with PM (10 mM) and infected with 0.1 MOI PRCV at 2 h, 4 h, 8 h and 16 h. The cell samples were harvested and determined by western blot. All western blot results were calculated by Image J. All experiments were performed in triplicate.
# Fig. S8. PM inhibits PRCV infection by degrading APN via PIK3C3-mediated autophagy. (A-C) WT ST cells and PIK3C3 KO ST cells were treated with PM (10 mM) and infected with PRCV (0.1 MOI) for 16 h. Then the APN, PIK3C3, ATG14, BECN1, P62, PRCV N and LC3 were detected by western blot (A), and viral titers and PRCV N mRNA level were determined by TCID50 (B) and RT-qPCR (C) . (D-F) WT ST cells and PIK3C3 KO ST cells transfected with pCMV-Myc and pCMV-Myc-PIK3C3 respectively for 24 h were treated with PM (10 mM) and infected with PRCV (0.1 MOI) for 16 h. The APN, PIK3C3, P62, PRCV N and LC3 were determined by western blot (D). TCID50 (E) and RT-qPCR (F) were performed to detect viral titers and PRCV N m RNA level. All western blot results were calculated by Image J. Results are presented as mean ± SD of data from three independent experiments […]
# [2] = tested on: PEDV LJX 01/2014; test: PEDV infection of Vero-E6 cells (TCID50, western blot); format: cell-based, porcine epidemic diarrhea virus; settings: TCID50 and western blot
# Procedure: Fig 1 PM inhibits TGEV and PRCV infection in ST cells. (A) A cytotoxicity assay of PM in ST cells. ST cells cultured in a 96-well plate were incubated with different concentrations of PM for 24 h, which was tested by Cell Counting Kit 8. (B) Time course for PM inhibiting TGEV or PRCV or PEDV infection assay. (C–F) The ST cells, pretreated with PM at the indicated concentrations for 1 h were infected with TGEV Miller (0.1 MOI) or PRCV (0.1 MOI) for 1 h and were again treated with PM at 37°C for 17 h. The cell samples were collected and examined by real-time quantitative PCR (RT-qPCR), TCID50, western blot (C and D), and immunofluorescence assay (IFA) (E and F), scale bar: 50 µm. (G) Vero-E6 cells were treated with indicated PM and infected with PEDV LJX 01/2014 according to the time course of Fig. 1B, which was detected by TCID50 and western blot. Results are presented as mean ± SD of data from three independent experiments. ns, no significant; **, P ≤ 0.01; ***, P ≤ 0.001.
structure (smiles),measurement,setting,value
"[K+].[K+].[O]=[Mo](=[O])([O-])[O-] [PM, potassium molybdate]","APN level, western blot, relative to WT without PM (=1)","[1]; Fig. S8A, PIK3C3 KO ST cells, 16 h",0.88
same,"APN level, western blot, relative to WT without PM (=1)","[1]; Fig. S8A, WT ST cells, 16 h",0.15
same,"APN level, western blot, relative to WT without PM (=1)","[1]; Fig. S8D, PIK3C3 KO ST cells with PIK3C3-Myc, 16 h",0.14
same,"APN level, western blot, relative to WT without PM (=1)","[1]; Fig. S8D, PIK3C3 KO ST cells without PIK3C3-Myc, 16 h",0.87
same,"APN level, western blot, relative to WT without PM (=1)","[1]; Fig. S8D, WT ST cells with pCMV-Myc, 16 h",0.1
same,APN expression in ST cells,"[1]; 2-16 h, western blot and IFA",decreased APN expression in ST cells
same,APN expression in intestinal organoid monolayers and apical-out organoids,"[1]; absence or presence of TGEV, different time points, western blot and IFA",decreased ex vivo APN expression
same,"APN level, western blot quantified by Image J, relative to no PM (=1)",[1]; 2 h,0.53
same,"APN level, western blot quantified by Image J, relative to no PM (=1)",[1]; 4 h,0.31
same,"APN level, western blot quantified by Image J, relative to no PM (=1)",[1]; 8 h,0.19
same,"APN level, western blot quantified by Image J, relative to no PM (=1)",[1]; 16 h,0.01
same,PEDV infection,[2],unable to repress PEDV infection
